From patent publication US20220378706A1, “PHARMACEUTICAL COMPOSITION COMPRISING PDE9 INHIBITOR” (Eisai R&D Management Co., Ltd., priority 2017, published 2022)
Like-named read-outs stand apart in the source and are kept apart here.

Assay: Single dose clinical study: plasma Compound A pharmacokinetics
Format: in vivo, human
Procedure: This was a single center, single dose, randomized, double blind, placebo controlled study in healthy subjects. It consisted of 4 parts: Parts A, B, C, and D. Each of the four study parts had 2 phases: Prerandomization Phase and Randomization Phase. The Prerandomization Phase lasted up to 30 days and consisted of a Screening Period and a Baseline Period, during which each subject's study eligibility was determined and baseline assessments were performed.
In Part A, there were 8 sequential cohorts of healthy adult subjects (18-50 years of age). Subjects were randomly assigned to Compound A or placebo in a ratio of 6:2, respectively. Subjects in the Compound A cohorts were treated with single ascending doses of 10, 25, 50, 100, 200, 400, 800, or 1200 mg.
In Part B, there were 4 cohorts of healthy adult subjects (18-50 years of age). There were 8 subjects in Cohort 1, with 6 subjects randomly assigned to receive single doses of Compound A (400 mg) and 2 subjects randomly assigned to receive placebo. There were 7 subjects in Cohort 2 and Cohort 3, each with 6 subjects randomly assigned to receive single doses of Compound A (100 and 200 mg, respectively) and 1 subject randomly assigned to receive placebo. The dose of 100 mg selected in Cohort 2 was based on preliminary analysis of Cohort 1 data; this dose was predicted from PK/PD modeling to achieve a sustained CSF cGMP increase from baseline of approximately 200% when administered to steady state, and thereby provided a potentially therapeutic dose for further evaluation in future studies. There were 7 subjects in Cohort 4, with 6 subjects randomly assigned to receive a single dose of Compound A (50 mg [n=3] or 75 mg [n=3]) and 1 subject randomly assigned to receive placebo. The doses for Cohorts 3 and 4 were selected based on PK/PD modeling of the data in Cohorts 1 and 2.
Subjects in Cohort 2 who had received Compound A 100 mg or placebo under fasted conditions (1st Treatment Period) also participated in an evaluation of food effect on the PK of Compound A (2nd Treatment Period). After a washout period of at least 13 days (or 5 half-lives of Compound A, whichever was longer), subjects were admitted to the clinic for baseline assessments (2nd Baseline Period) and then received a single dose of the same treatment (Compound A 100 mg or placebo) after consuming a high fat and high calorie meal over 30 minutes. Blood PK samples were collected at prespecified time points. Safety evaluations were also assessed. CSF was not collected for PD evaluation during the 2nd Treatment Period. A Follow Up Visit occurred on Day 10 of Treatment Period 2.
In Part C, there was 1 cohort of 8 healthy elderly subjects (65 to 85 years of age) randomly assigned to receive a single dose of Compound A 100 mg or placebo in a ratio of 6:2, respectively.
In Part D, 3 cohorts of healthy adult Japanese subjects were randomized in parallel. There were 7 subjects in each cohort and subjects were randomly assigned to receive single doses of Compound A (25, 100, or 400 mg) or placebo in a ratio of 6:1, respectively.
Blood samples for determination of plasma Compound A concentrations were collected from predose to 216 hours postdose. On Day 1, blood PK samples were collected at predose and postdose 0.5 (30 minutes), 1, 1.5, 2, 3, 4, 5, 6, 8, 12, and 18 hours. Thereafter, samples were collected on Day 2 (24 and 36 hours postdose), Day 3 (48 hours postdose), Day 4 (72 hours postdose), Day 5 (96 hours postdose), Day 6 (120 hours postdose), Day 7 (144 hours postdose), and Day 10 (216 hours postdose).
Blood samples for determination of plasma Compound A concentrations were collected from predose to 216 hours postdose. For all cohorts, blood PK samples were collected on Day 1 at predose and postdose at 0.5 (30 minutes), 1, 1.5, 2, 3, 4, 5, 6, 8, 10, 12, and 18 hours. […]

[1] = 100 mg after high-fat and high-calorie meal
[2] = 400 mg, with weight as a covariate
[3] = Elderly:Younger Adults, single oral 100 mg
[4] = Japanese:non-Japanese, 25 mg, with weight as covariate
[5] = Japanese:non-Japanese, 25 mg, without weight as covariate
[6] = Japanese:non-Japanese, 100 mg, with weight as covariate
[7] = Japanese:non-Japanese, 100 mg, without weight as covariate
[8] = Japanese:non-Japanese, 400 mg, with weight as covariate
[9] = Japanese:non-Japanese, 400 mg, without weight as covariate

With COc1ncc(C)c(-c2ccc3c(c2)[nH]c(=O)c2cnn([C@H]4CCOC4)c23)c1C [Compound A, (S)-7-(2-methoxy-3,5-dimethylpyridin-4-yl)-1-(tetrahydrofuran-3-yl)-1H-pyrazolo[4,3-c]quin olin-4(5H)-one] the “geometric LS mean Cmax higher in Japanese than non-Japanese” value (25 mg, with weight as a covariate) was 35.6%, the “geometric LS mean AUC(0-inf) higher in elderly than in younger healthy adult subjects” value (100 mg) was “approximately 41.5%” and the “geometric LS mean Cmax higher in elderly than in younger healthy adult subjects” value (100 mg) was “approximately 45.5%”. For the same molecule, the “increase in the geometric LS mean Cmax, fed vs fasted” value (100 mg after high fat and high calorie meal) was 44.4%, the “increase in the geometric LS mean AUC(0-inf), fed vs fasted” value [1] was 19.2% and the “increase in the geometric LS mean Cmax, fed vs fasted” value [1] was 44.400. For the same molecule, the “geometric LS mean Cmax higher in Japanese than non-Japanese” value (100 mg, with weight as a covariate) was 30.0%, the “geometric LS mean AUC(0-inf) higher in Japanese than non-Japanese” value [2] was 27.9% and the “geometric LS mean Cmax higher in Japanese than non-Japanese” value [2] was 40.4%. For the same molecule, the “geometric LS mean Cmax higher in Japanese than non-Japanese across the 3 doses” value (25, 100, 400 mg) was 35.2%, the “AUC(0-inf) Geometric LS Mean Ratio (90% CI)” value [3] was 1.415 (1.168, 1.715) and the “Cmax Geometric LS Mean Ratio (90% CI)” value [3] was 1.455 (1.198, 1.766). For the same molecule, the “AUC(0-inf) Geometric LS Mean Ratio (90% CI)” value (Fed:Fasted, 100 mg, Part B) was 1.192 (1.003, 1.418), the “AUC(0-t) Geometric LS Mean Ratio (90% CI)” value (Fed:Fasted, 100 mg, Part B) was 1.186 (0.992, 1.418) and the “Cmax Geometric LS Mean Ratio (90% CI)” value (Fed:Fasted, 100 mg, Part B) was 1.444 (1.210, 1.723). For the same molecule, the “AUC(O-inf) Geometric LS Mean Ratio (90% CI)” value [4] was 1.035 (0.819, 1.308), the “Cmax Geometric LS Mean Ratio (90% CI)” value [4] was 1.356 (1.082, 1.699) and the “AUC(O-inf) Geometric LS Mean Ratio (90% CI)” value [5] was 1.057 (0.845, 1.323). The “Cmax Geometric LS Mean Ratio (90% CI)” value [5] was 1.394 (1.122, 1.732), the “AUC(O-inf) Geometric LS Mean Ratio (90% CI)” value [6] was 0.935 (0.767, 1.140) and the “Cmax Geometric LS Mean Ratio (90% CI)” value [6] was 1.300 (1.074, 1.573). The “AUC(O-inf) Geometric LS Mean Ratio (90% CI)” value [7] was 0.944 (0.778, 1.147), the “Cmax Geometric LS Mean Ratio (90% CI)” value [7] was 1.317 (1.091, 1.589) and the “AUC(O-inf) Geometric LS Mean Ratio (90% CI)” value [8] was 1.279 (1.035, 1.580). The “Cmax Geometric LS Mean Ratio (90% CI)” value [8] was 1.404 (1.145, 1.721), the “AUC(O-inf) Geometric LS Mean Ratio (90% CI)” value [9] was 1.300 (1.059, 1.595) and the “Cmax Geometric LS Mean Ratio (90% CI)” value [9] was 1.433 (1.176, 1.747). For the same molecule, the AUC (human, plasma, oral, 25 mg, Japanese, 25 mg, with weight as covariate, read-out: AUC(O-inf) Geometric LS Means Test) was 4500 ng·h/mL, the Cmax (human, plasma, oral, 25 mg, Japanese, 25 mg, with weight as covariate, read-out: Cmax Geometric LS Means Test) was 207 ng/mL and the AUC (human, plasma, oral, 25 mg, Japanese, 25 mg, without weight as covariate, read-out: AUC(O-inf) Geometric LS Means Test) was 4580 ng·h/mL. It also gave a Cmax (human, plasma, oral, 25 mg, Japanese, 25 mg, without weight as covariate, read-out: Cmax Geometric LS Means Test) of 212 ng/mL, an AUC (human, plasma, oral, 25 mg, non-Japanese, 25 mg, with weight as covariate, read-out: AUC(O-inf) Geometric LS Means Reference) of 4350 ng·h/mL and a Cmax (human, plasma, oral, 25 mg, non-Japanese, 25 mg, with weight as covariate, read-out: Cmax Geometric LS Means Reference) of 152 ng/mL. The AUC (human, plasma, oral, 25 mg, non-Japanese, 25 mg, without weight as covariate, read-out: AUC(O-inf) Geometric LS Means Reference) was 4340 ng·h/mL, the Cmax (human, plasma, oral, 25 mg, non-Japanese, 25 mg, without weight as covariate, read-out: Cmax Geometric LS Means Reference) was 152 ng/mL and the AUC(0-inf) (human, plasma, oral, 100 mg, Fasted, 100 mg, Part B, read-out: AUC(0-inf) Geometric LS Means Reference) was 14500 ng·h/mL. The AUC(0-t) (human, plasma, oral, 100 mg, Fasted, 100 mg, Part B, read-out: AUC(0-t) Geometric LS Means Reference) was 14400 ng·h/mL, the Cmax (human, plasma, oral, 100 mg, Fasted, 100 mg, Part B, read-out: Cmax Geometric LS Means Reference) was 371 ng/mL and the AUC(0-inf) (human, plasma, oral, 100 mg, Fed, 100 mg, Part B, read-out: AUC(0-inf) Geometric LS Means Test) was 17300 ng·h/mL. For the same molecule, the AUC(0-t) (human, plasma, oral, 100 mg, Fed, 100 mg, Part B, read-out: AUC(0-t) Geometric LS Means Test) was 17100 ng·h/mL, the Cmax (human, plasma, oral, 100 mg, Fed, 100 mg, Part B, read-out: Cmax Geometric LS Means Test) was 536 ng/mL and the AUC (human, plasma, oral, 100 mg, Japanese, 100 mg, with weight as covariate, read-out: AUC(O-inf) Geometric LS Means Test) was 14200 ng·h/mL. The Cmax (human, plasma, oral, 100 mg, Japanese, 100 mg, with weight as covariate, read-out: Cmax Geometric LS Means Test) was 491 ng/mL, the AUC (human, plasma, oral, 100 mg, Japanese, 100 mg, without weight as covariate, read-out: AUC(O-inf) Geometric LS Means Test) was 14200 ng·h/mL and the Cmax (human, plasma, oral, 100 mg, Japanese, 100 mg, without weight as covariate, read-out: Cmax Geometric LS Means Test) was 492 ng/mL. For the same molecule, the AUC (human, plasma, oral, 100 mg, non-Japanese, 100 mg, with weight as covariate, read-out: AUC(O-inf) Geometric LS Means Reference) was 15200 ng·h/mL, the Cmax (human, plasma, oral, 100 mg, non-Japanese, 100 mg, with weight as covariate, read-out: Cmax Geometric LS Means Reference) was 378 ng/mL and the AUC (human, plasma, oral, 100 mg, non-Japanese, 100 mg, without weight as covariate, read-out: AUC(O-inf) Geometric LS Means Reference) was 15000 ng·h/mL. It also gave a Cmax (human, plasma, oral, 100 mg, non-Japanese, 100 mg, without weight as covariate, read-out: Cmax Geometric LS Means Reference) of 373 ng/mL, a half-life (human, plasma, oral, 100 mg, read-out: mean terminal half-life longer in elderly than in younger healthy adult subjects (converted)) of about 10 h and an AUC (human, plasma, oral, 400 mg, Japanese, 400 mg, with weight as covariate, read-out: AUC(O-inf) Geometric LS Means Test) of 46000 ng·h/mL. It also gave a Cmax (human, plasma, oral, 400 mg, Japanese, 400 mg, with weight as covariate, read-out: Cmax Geometric LS Means Test) of 1170 ng/mL, an AUC (human, plasma, oral, 400 mg, Japanese, 400 mg, without weight as covariate, read-out: AUC(O-inf) Geometric LS Means Test) of 46500 ng·h/mL and a Cmax (human, plasma, oral, 400 mg, Japanese, 400 mg, without weight as covariate, read-out: Cmax Geometric LS Means Test) of 1180 ng/mL. For the same molecule, the AUC (human, plasma, oral, 400 mg, non-Japanese, 400 mg, with weight as covariate, read-out: AUC(O-inf) Geometric LS Means Reference) was 36000 ng·h/mL.
